Data as given in patent publication US7531193B2 (priority 2004, dated 2009).
Where “and” joins values, the source holds several entries; their conditions need not be identical. Equal values may be shown once.

System: human striated muscle cell innervation with spinal cord and spinal ganglion explants from rat embryos
Assay type: cell-based, human (muscle cells), rat (embryo explants)

In the case of `C/C=C/C=C\CC/C=C/C(=O)NCC(C)C` [Pure spilanthol, spilanthol], the “Effect on muscle contractions (conclusion)” value is reported as “lead to a blockage of muscle contractions”, the “Frequency of contractions (%), incubation without washout, 5 min” value is reported as 0% and 7% and the “Frequency of contractions (%), incubation without washout, 1 h” value is reported as 0%. The “Frequency of contractions (%), incubation without washout, 6 h” value was 0% and 4%, the “Frequency of contractions (%), recuperation after washout, 1 h” value was 0% and the “Incubation time after which muscle contractions are blocked” value was 5 min. For the same compound, the “Recuperation of contractile activity (conclusion)” value was “not observed”, the “Time the fibres remain blocked after elimination of the substance” value was 24 h and the “Time until which the blockage is maintained during incubation” value was 6 h.
